According to ChEMBL document CHEMBL1135075, “Synthesis and biological evaluation of imidazol-2-one and 2-cyanoiminoimidazole derivatives: novel series of PDE4 inhibitors” (Bioorg Med Chem Lett, 2002):

Legend:
Rattus norvegicus = experiment: Tested in vivo for lowest active dose that induced inhibitory effect on gastric emptying in rats; type: functional, Stomach
[1] = biological target: 3',5'-cyclic-AMP phosphodiesterase 4B (Homo sapiens, UniProt Q07343); experiment: Inhibitory activity against recombinant phosphodiesterase 4B (PDE4B) of human mononuclear lymphocytes
Mus musculus [2] = experiment: Evaluated for antiinflammatory activity in the TPA induced ear inflammation model at a dose 2 mg/kg (50 ug); type: functional
Mus musculus [3] = experiment: Evaluated for antiinflammatory activity in the TPA induced ear inflammation model at a dose 1 mg/kg (25 ug); type: functional
Phosphodiesterase 4 = Phosphodiesterase 4 (Rattus norvegicus, UniProt P14270+P14646+P14644+P54748); experiment: Displacement of [3H]rolipram from rat forebrain membrane; type: tissue-based, Brain

Sequence of 3',5'-cyclic-AMP phosphodiesterase 4B (Q07343 whole entry): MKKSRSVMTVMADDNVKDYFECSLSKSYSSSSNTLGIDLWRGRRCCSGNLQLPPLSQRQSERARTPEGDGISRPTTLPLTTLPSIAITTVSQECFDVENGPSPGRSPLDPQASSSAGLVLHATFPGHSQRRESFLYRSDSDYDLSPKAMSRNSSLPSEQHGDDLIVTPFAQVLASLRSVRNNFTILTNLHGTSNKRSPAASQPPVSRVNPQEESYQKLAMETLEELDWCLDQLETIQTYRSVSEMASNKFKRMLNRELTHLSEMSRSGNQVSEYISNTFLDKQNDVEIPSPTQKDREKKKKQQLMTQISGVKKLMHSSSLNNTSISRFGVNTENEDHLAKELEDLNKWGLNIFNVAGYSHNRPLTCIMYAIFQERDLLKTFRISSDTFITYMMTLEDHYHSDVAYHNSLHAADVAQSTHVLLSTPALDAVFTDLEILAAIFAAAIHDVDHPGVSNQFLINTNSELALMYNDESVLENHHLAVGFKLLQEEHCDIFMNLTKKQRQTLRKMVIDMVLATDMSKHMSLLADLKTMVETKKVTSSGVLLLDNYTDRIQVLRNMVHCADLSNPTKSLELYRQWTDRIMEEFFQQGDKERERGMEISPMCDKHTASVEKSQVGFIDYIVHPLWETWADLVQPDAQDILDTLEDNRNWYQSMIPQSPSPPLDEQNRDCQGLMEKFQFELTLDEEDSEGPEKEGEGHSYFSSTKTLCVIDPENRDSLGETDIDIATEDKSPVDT

IC50 [1]	Ki (Phosphodiesterase 4)	SMILES	LAD (Rattus norvegicus)	inhibition in vivo at 2 mg/kg (Mus musculus [2])	inhibition in vivo at 1 mg/kg (Mus musculus [3])
367 nM	–	COc1ccc(C(C)(C)Cn2ccnc2O)cc1OC1CCCC1	0.63 mg/kg	–	–
24.1 nM	–	COc1ccc(C(C)Cn2ccnc2O)cc1OC1CCCC1 (centres undefined)	0.01 mg/kg	–	–
–	180 nM	COc1ccc(C(C)Cn2ccnc2NC#N)cc1OC1Cc2ccccc2C1 (centres undefined)	2.5 mg/kg	82%	51%
> 1000 nM	–	CC(Cn1ccnc1O)c1ccc(OC(F)(F)F)c(OC2CCCC2)c1 (centres undefined)	1.25 mg/kg	–	–
21 nM	–	COc1ccc(C(C)Cn2ccnc2O)cc1OC1CC2CCC1C2 (centres undefined)	0.01 mg/kg	90%	34%
< 10 nM	–	CC(Cn1ccnc1O)c1ccc(OC(F)F)c(OC2CCCC2)c1 (centres undefined)	0.02 mg/kg	–	–
> 1000 nM	–	COc1ccc(C(C)(O)Cn2ccnc2O)cc1OC1CCOC1 (centres undefined)	0.31 mg/kg	–	–
–	220 nM	COc1ccc([C@H](C)Cn2ccnc2NC#N)cc1OC1Cc2ccccc2C1	>5 mg/kg	–	54%
399 nM	–	COc1ccc(C(O)Cn2ccnc2O)cc1OC1Cc2ccccc2C1 (centres undefined)	0.31 mg/kg	–	–
–	63 nM	COc1ccc([C@@H](C)Cn2cc[nH]/c2=N\C#N)cc1OC1Cc2ccccc2C1	2.5 mg/kg	–	56%
24.3 nM	–	COc1ccc(C(F)Cn2ccnc2O)cc1OC1Cc2ccccc2C1 (centres undefined)	0.08 mg/kg	–	–
67.6 nM	–	COc1ccc(C(C)Cn2ccnc2NC#N)cc1OCCC1Cc2ccccc2C1 (centres undefined)	>1.25 mg/kg	–	–
28.4 nM	–	CC(Cn1ccnc1NC#N)c1ccc(OC(F)F)c(OCCCCCc2ccccc2)c1 (centres undefined)	>1.25 mg/kg	69%	41%

More lines, now with the values behind:

SMILES	IC50 [1]	Ki (Phosphodiesterase 4)	LAD (Rattus norvegicus)	inhibition in vivo at 2 mg/kg (Mus musculus [2])	inhibition in vivo at 1 mg/kg (Mus musculus [3])
Oc1nccn1CC1(c2ccc(OC(F)F)c(OC3CCCC3)c2)CC1	39.2 nM	–	0.08 mg/kg	–	–
COc1ccc(C(C)Cn2ccnc2NC#N)cc1OC1CCOC1 (centres undefined)	–	–	>1.25 mg/kg	71%	38%
COc1ccc(C(C)(F)Cn2ccnc2O)cc1OC1CCOC1 (centres undefined)	327 nM	–	0.31 mg/kg	–	–
COc1ccc(C(C)Cn2ccnc2NC#N)cc1OCC1CC1 (centres undefined)	–	–	1.25 mg/kg	78%	38%
COc1ccc(C(C)Cn2ccnc2NC#N)cc1OCCCCCc1ccccc1 (centres undefined)	–	–	>1.25 mg/kg	77%	36%
COc1ccc(CCn2ccnc2O)cc1OC1CCCC1	110 nM	–	0.08 mg/kg	81%	32%
COc1ccc(C(=O)Cn2ccnc2O)cc1OC1CCCC1	486 nM	–	1.25 mg/kg	–	–
CC(Cn1ccnc1NC#N)c1ccc(OC(F)F)c(OCC2CC2)c1 (centres undefined)	–	–	0.08 mg/kg	52%	22%
COc1ccc(C(=O)Nc2c(Cl)cncc2Cl)cc1OC1CCCC1	–	–	0.5 mg/kg	69%	43%
COc1ccc(C(C)Cn2ccnc2O)cc1OCC1CC1 (centres undefined)	85.8 nM	3.5 nM	0.01 mg/kg	74%	56%
COc1ccc(C2CNC(=O)C2)cc1OC1CCCC1 (centres undefined) [ROLIPRAM]	–	–	0.04 mg/kg	43%	6%
COc1ccc([C@]2(C#N)CC[C@@H](C(=O)O)CC2)cc1OC1CCCC1 [CILOMILAST]	–	–	5 mg/kg	88%	69%
COc1ccc(C(C)Cn2ccnc2NC#N)cc1OC1CCCC1 (centres undefined)	–	–	1.25 mg/kg	84%	50%
COc1ccc(C2(Cn3ccnc3O)CC2)cc1OC1CCCC1	341 nM	–	0.63 mg/kg	66%	18%
COc1ccc(C(C)C(C)n2ccnc2O)cc1OC1CCCC1 (centres undefined)	277 nM	–	–	–	–
COc1ccc(C(C)Cn2ccnc2O)cc1OC1CCOC1 (centres undefined)	–	–	0.02 mg/kg	–	–
